From patent US20240165104A1, “TREATMENT OF DEPRESSION” (priority 2021, published 2024)
Where a name gives a salt, the structure may show the parent alone. Read-outs that look alike come from different tables or passages of the source.

Assays:
[1] = Pharmacokinetics after administration of the subject combination; conditions: for accumulation ratio at steady state based on AUC0-12 / accumulation ratio at steady state based on Cmax: given as the subject combination; for AUC0-12 of metabolite relative to that of bupropion / Cmax of metabolite relative to peak level of bupropion: after administration of the subject combination; for apparent elimination half-life (metabolites): in vivo
[2] = Plasma drug concentration cutoffs for treatment adherence; conditions: human, in vivo
Protocol: (§1) In the patients of Example 1, plasma samples were collected after up to 6 weeks of treatment in the clinical trial (end of treatment visit) and analyzed.
(§2) The selected drug concentration cutoffs approximate the lowest observed concentrations 24 hours after the last dose of the study drug under 100% adherent conditions. The 15 ng/mL threshold at 24 hours after the last dose corresponds to a plasma concentration of about 19 ng/mL at about 12 hours after a dose that is administered after steady state has been achieved (e.g., day 42).

[3] = Solubility of the drug powder in water
plasma protein = experiment: Plasma protein binding; format: in vitro ADME; conditions: metabolites of bupropion
[4] = test system: treatment-adherent patients with treatment-resistant depression; experiment: Analysis of treatment-adherent patients of the Phase 3 trial (Example 2); conditions: both, human, in vivo, 6 weeks
Protocol: It was discovered in this study that measurement of plasma drug concentrations is a direct method of assessing treatment adherence.
as §1, §2
Other efficacy assessments included Quick Inventory Depressive Symptoms-Self Report (QIDS-SR-16), Hamilton Anxiety Rating Scale, and Cognition and Physical Functioning Questionnaire (CPFQ).
Demographics and baseline characteristics were similar across both treatment groups.

Plasma protein binding = format: in vitro ADME; conditions: plasma
[5] = test system: patients with treatment resistant depression (TRD); experiment: Phase 3 randomized double-blind active controlled trial of DM/BU in treatment resistant depression (Example 1); format: in vivo, human
Source text: Inclusion criteria for the open-label period included males or females 18-65 years of age, a history of inadequate response to 1 or 2 prior antidepressant treatments, established by the Antidepressant Treatment Response Questionnaire (ATRQ), and a Hamilton Depression Rating Scale (HAMD-17) total score of ≥18. Inclusion criteria for the double-blind period included inadequate response to 2 or 3 prior antidepressant treatments, including open-label period failure. Exclusion criteria included a history of electroconvulsive therapy, vagus nerve stimulation, transcranial magnetic stimulation or any experimental central nervous system treatment during the current episode or in the past 6 months, schizophrenia, bipolar disorder, obsessive compulsive disorder, psychiatric symptoms secondary to any other general medical condition.
The change in depressive symptoms over time was measured using the Montgomery-Åsberg Depression Rating Scale (MADRS) and the Quick Inventory of Depressive Symptomatology-Self-Rated (QIDS-SR-16). The primary endpoint was the change from baseline in the MADRS after 6 weeks of treatment. The key secondary endpoints were the change from baseline in the MADRS after 1 week of treatment, after 2 weeks of treatment, the average change over entire 6-week double-blind treatment period, and the Sheehan Disability Scale (SDS). Other pre-specified secondary efficacy variables included the Cognitive subscale of the Massachusetts General Hospital Cognitive and Physical Functioning Questionnaire (CPFQ), and the Hamilton Anxiety Scale (HAM-A).

[6] = subject combination administered with food

COc1ccc2c(c1)[C@]13CCCC[C@@H]1[C@H](C2)N(C)CC3 [dextromethorphan, morphinan, 3-methoxy-17-methyl-, (9α, 13α, 14α), hydrobromide monohydrate]
increase of mean elimination half-life as compared to dextromethorphan given without bupropion ([1]; following 8 days of the subject combination, extensive metabolizers): approximately 3 fold | accumulation ratio at steady state based on AUC0-12 [1]: about 32 | accumulation ratio at steady state based on Cmax [1]: about 20 | change of Cmax with food [1, 6]: unchanged | decrease of AUC0-12 with food [1, 6]: 14% | concentration at 12 h ([2]; dose administered after steady state (e.g., day 42), read-out: corresponding plasma concentration at about 12 hours after a dose): ~19 ng/mL | concentration at 24 h ([2]; under 100% adherent conditions, read-out: plasma concentration cutoff approximating the lowest observed concentration 24 hours after the last dose): ~15 ng/mL | solubility in water [3]: sparingly soluble in water

C[C@H]1NC(C)(C)CO[C@]1(O)c1cccc(Cl)c1 [hydroxybupropion]
AUC0-12 of metabolite relative to that of bupropion [1]: about 19 times | Cmax of metabolite relative to peak level of bupropion [1]: approximately 14 times | apparent elimination half-life (metabolites) ([1]; human): approximately 35 hours

C[C@H](NC(C)(C)C)[C@@H](O)c1cccc(Cl)c1 [threohydroxybupropion]
AUC0-12 of metabolite relative to that of bupropion [1]: about 7 times | Cmax of metabolite relative to peak level of bupropion [1]: about 5 times | apparent elimination half-life (metabolites) ([1]; human): ~33 h | extent of protein binding compared with bupropion (plasma protein): about half that seen with bupropion

CC(NC(C)(C)C)C(O)c1cccc(Cl)c1 (centres unmarked) [erythrohydroxybupropion]
AUC0-12 of metabolite relative to that of bupropion [1]: about 1.2 times | Cmax of metabolite relative to peak level of bupropion [1]: approximately equal to | apparent elimination half-life (metabolites) ([1]; human): ~44 h

CC(NC(C)(C)C)C(=O)c1cccc(Cl)c1.Cl (racemic) [bupropion, (±)-1-(3-chlorophenyl)-2-[(1,1-dimethylethyl)amino]-1-propanone hydrochloride]
accumulation ratio at steady state based on AUC0-12 [1]: 1.5 | accumulation ratio at steady state based on Cmax [1]: 1.1 | Tmax ([1]; human, plasma, oral): ~2 h | increase of AUC0-12 with food [1, 6]: 6% | increase of Cmax with food [1, 6]: 3% | Blood pressure increased [4]: 0 (0.0%) | Dizziness [4]: 0 (0.0%) | Dry mouth [4]: 3 (2.3%) | Headache [4]: 6 (4.5%) | Nasopharyngitis [4]: 0 (0.0%) | Nausea [4]: 2 (1.5%) | Somnolence [4]: 2 (1.5%) | rate of discontinuation due to adverse events [4]: 0.8% | fraction unbound (Plasma protein binding): 0.16 | concentration at 24 h [2]: ~10 ng/mL | solubility in water [3]: highly soluble in water | rate of remission from depression (QIDS-SR-16≤5) at Week 6 ([5]; % of patients, p=0.012): 8.2% | rate of discontinuation due to adverse events ([5]; both, human, in vivo, 6 weeks): 1.9% | MADRS mean reduction averaged over the entire 6-week treatment period ([5]; key secondary endpoint, DM/BU n=154, bupropion n=155, p=0.031): 6.7 | MADRS mean reduction at Week 1 ([5]; key secondary endpoint, p=0.02): 3.6 | MADRS mean reduction at Week 2 ([5]; key secondary endpoint, p=0.035): 6.1 | QIDS-SR-16 mean reduction averaged over the entire 6-week treatment period ([5]; p=0.013): 2.3 | MADRS mean reduction at Week 6 ([5]; primary endpoint, p=0.117, did not reach statistical significance): 9.4
